Measured values: ChEMBL document CHEMBL4406812, “Synthesis of quinones with highlighted biological applications: A critical update on the strategies towards bioactive compounds with emphasis on lapachones” (Eur J Med Chem, 2019)
Each block holds one molecule with its values, some of them ahead of it.

Experiments:
L929 = test: Anticancer activity against mouse L929 cells; format: functional, cell-based
HL-60 [1] = test: Anticancer activity against human HL60 cells; format: functional, cell-based
HCT-116 [2] = test: Anticancer activity against human HCT116 cells; format: functional, cell-based
Trypanosoma cruzi [3] = test: Trypanocidal activity against Trypanosoma cruzi Y strain bloodstream trypomastigotes after 24 hrs; format: functional, organism-based
Trypanosoma cruzi [4] = test: Anti-parasitic activity against amastigote form of Trypanosoma cruzi after 24 hrs; format: functional, organism-based
Trypanosoma cruzi [5] = test: Trypanocidal activity against Trypanosoma cruzi Y strain bloodstream trypomastigotes isolated from infected Swiss mouse infected with monkey LLC-MK2 cells after 5 days by fluorescence spectrophotometric analysis; format: functional, organism-based; settings: LLC-MK2, 120 h
[6] = Selectivity index, ratio of CC50 for monkey LLC-MK2 cells to IC50 for Trypanosoma cruzi Y strain bloodstream trypomastigotes; format: toxicity; settings: read-out: Ratio IC50
HepG2 = test: Cytotoxicity against human HepG2 cells assessed as reduction in cell viability after 48 hrs by MTT assay; format: functional, cell-based; settings: HepG2, 48 h
L02 = test: Cytotoxicity against human LO2 cells assessed as reduction in cell viability after 48 hrs by MTT assay; format: functional, cell-based; settings: L02, 48 h
Trypanosoma cruzi [7] = test: Anti-parasitic activity against Trypanosoma cruzi; format: functional, organism-based
MCF7 = test: Anticancer activity against human MCF7 cells; format: functional, cell-based
Trypanosoma cruzi [8] = test: Anti-parasitic activity against epimastigotes form of Trypanosoma cruzi; format: functional, organism-based
Trypanosoma cruzi [9] = test: Anti-parasitic activity against trypomastigotes form of Trypanosoma cruzi after 24 hrs; format: functional, organism-based
Hs-578T [10] = test: Cytotoxicity against human Hs 578T cells assessed as reduction in cell viability after 72 hrs by MTT assay; format: functional, cell-based
NCI-H358 = test: Cytotoxicity against human NCI-H358 cells assessed as reduction in cell viability after 72 hrs by MTT assay; format: functional, cell-based; settings: NCI-H358, 72 h
SF-295 [11] = test: Cytotoxicity against human SF295 cells assessed as reduction in cell viability after 72 hrs by MTT assay; format: functional, cell-based; settings: SF-295, 72 h
SW-620 [12] = test: Cytotoxicity against human SW620 cells assessed as reduction in cell viability after 72 hrs by MTT assay; format: functional, cell-based; settings: SW-620, 72 h
Hs-578T [13] = test: Cytotoxicity against human Hs578T cells assessed as reduction in cell viability after 72 hrs by MTT assay; format: functional, cell-based
MDA-MB-435 [14] = test: Cytotoxicity against human MDA-MB-435 cells assessed as reduction in cell viability after 72 hrs by MTT assay; format: functional, cell-based; settings: MDA-MB-435, 72 h
Trypanosoma cruzi [15] = test: Potency index, ratio of beta-lapachone IC50 to compound IC50 for Trypanosoma cruzi after 24 hrs; format: functional, organism-based
PC-3 [16] = test: Cytotoxicity against human PC3 cells assessed as reduction in cell viability after 48 hrs; format: functional, cell-based; settings: PC-3, 48 h
OVCAR-8 = test: Cytotoxicity against human OVCAR8 cells assessed as reduction in cell viability after 48 hrs; format: functional, cell-based; settings: OVCAR-8, 48 h
HL-60 [17] = test: Cytotoxicity against human HL60 cells assessed as reduction in cell viability after 48 hrs; format: functional, cell-based; settings: HL-60, 48 h
HCT-116 [18] = test: Cytotoxicity against human HCT116 cells assessed as reduction in cell viability after 48 hrs; format: functional, cell-based; settings: HCT-116, 48 h
SF-295 [19] = test: Cytotoxicity against human SF295 cells assessed as reduction in cell viability after 48 hrs; format: functional, cell-based; settings: SF-295, 48 h
MDA-MB-435 [20] = test: Cytotoxicity against human MDA-MB-435 cells assessed as reduction in cell viability after 48 hrs; format: functional, cell-based; settings: MDA-MB-435, 48 h
PBMC = test: Cytotoxicity against human PBMC; format: cell-based
SF-295 [21] = test: Anticancer activity against human SF295 cells; format: functional, cell-based
MDA-MB-435 [22] = test: Anticancer activity against human MDA-MB-435 cells; format: functional, cell-based
HCT-8 = test: Anticancer activity against human HCT8 cells; format: functional, cell-based
NCI-H460 = test: Anticancer activity against human NCI-H460 cells; format: functional, cell-based
MOLT-4 = test: Anticancer activity against human MOLT4 cells; format: functional, cell-based
K562 = test: Anticancer activity against human K562 cells; format: functional, cell-based
DU-145 = test: Anticancer activity against human DU145 cells; format: functional, cell-based
MX1 = test: Anticancer activity against human MX1 cells; format: functional, cell-based
MDA-MB-231 = test: Anticancer activity against human MDA-MB-231 cells; format: functional, cell-based
UACC-62 = test: Anticancer activity against human UACC62 cells; format: functional, cell-based
SF-268 = test: Anticancer activity against human SF268 cells; format: functional, cell-based
Jurkat = test: Anticancer activity against human Jurkat cells; format: functional, cell-based
Hs-578T [23] = test: Anticancer activity against human Hs578T cells; format: functional, cell-based
SW-620 [24] = test: Anticancer activity against human SW620 cells; format: functional, cell-based
PC-3 [25] = test: Anticancer activity against human PC3 cells; format: functional, cell-based
HL-60 [26] = test: Cytotoxicity against human HL60 cells assessed as reduction in cell viability after 22 hrs by MTS assay; format: functional, cell-based; settings: HL-60, 22 h

SMILES: CC1(C)OC2=C(C(=O)C(=O)c3ccccc32)[C@H](n2cc(C[Se]c3ccc(F)cc3)nn2)[C@H]1Br
IC50 (L929): 360 nM
IC50 (HL-60 [1]): 590 nM
IC50 (HCT-116 [2]): 370 nM

SMILES: O=C(Cn1ccnc1[N+](=O)[O-])NCc1ccccc1 [BENZNIDAZOLE]
IC50 (Trypanosoma cruzi [3]): 9680 nM
IC50 (Trypanosoma cruzi [4]): 3300 nM
IC50 (Trypanosoma cruzi [5]): 19900 nM
selectivity ratio [6]: 16.8

SMILES: O=C1C(=O)c2ccccc2C2=C1C1(C(=O)N(c3ccccc3)c3ccccc31)N1NN=NC1=N2 (centres undefined)
IC50 (HepG2): 2900 to 36300 nM
IC50 (L02): 2900 to 36300 nM

IC50 (Trypanosoma cruzi [7]): 500 nM
SMILES: Cc1cc(I)c2c(c1)C(=O)C=CC2=O

SMILES: Nc1nnn[nH]1
IC50 (HepG2): 2900 to 36300 nM
IC50 (L02): 2900 to 36300 nM

IC50 (MCF7): 460 nM
SMILES: CC1(C)OC2=C(C(=O)C(=O)c3ccccc32)C1CO (centres undefined)

SMILES: CN1C(=O)C2(C3=C(N=C4N=NNN42)c2ccccc2C(=O)C3=O)c2cccc(F)c21 (centres undefined)
IC50 (HepG2): 2900 to 36300 nM
IC50 (L02): 2900 to 36300 nM

SMILES: O=C1C(=O)c2ccccc2C2=C1C1(C(=O)Nc3ccc(F)cc31)N1NN=NC1=N2 (centres undefined)
IC50 (HepG2): 2900 to 36300 nM
IC50 (L02): 2900 to 36300 nM

SMILES: O=C1C(=O)c2ccccc2C2=C1C1(C(=O)Nc3ccc(OC(F)(F)F)cc31)N1NN=NC1=N2 (centres undefined)
IC50 (HepG2): 2900 to 36300 nM
IC50 (L02): 2900 to 36300 nM

IC50 (Trypanosoma cruzi [8]): 19000 nM
SMILES: CCC(C)OP(=O)(N/N=C1\C(=O)C2=C(OC(C)(C)CC2)c2ccccc21)OC(C)CC (centres undefined)

IC50 (Trypanosoma cruzi [9]): 14300 nM
SMILES: O=C1C=CC(=O)c2c(SCc3ccccc3)cccc21

SMILES: CC1(C)OC2=C(C(=O)C(=O)c3ccccc32)C1n1cc(-c2ccc(Nc3ccccn3)c3nsnc23)nn1 (centres undefined)
IC50 (Hs-578T [10]): 590 nM
IC50 (NCI-H358): 700 nM
IC50 (SF-295 [11]): 740 nM
IC50 (SW-620 [12]): 550 nM
IC50 (Hs-578T [13]): 570 nM
IC50 (MDA-MB-435 [14]): 590 nM

IC50 (Trypanosoma cruzi [9]): 12400 nM
SMILES: O=C1C=CC(=O)c2c(Sc3ccccc3)cccc21

SMILES: CC1(C)CCc2c(c3ccccc3c3nc4cc(Nc5ccccc5)/c(=N/c5ccccc5)cc-4n(-c4ccccc4)c23)O1
Ratio IC50 (Trypanosoma cruzi [15]): 61.3

SMILES: CC1(C)OC2=C(C(=O)C(=O)c3ccccc32)C1Nc1cccc(-c2cn(C[Se]c3ccccc3)nn2)c1 (centres undefined)
IC50 (PC-3 [16]): < 100 nM
IC50 (OVCAR-8): < 100 nM
IC50 (HL-60 [17]): < 100 nM
IC50 (HCT-116 [18]): < 100 nM
IC50 (SF-295 [19]): < 100 nM
IC50 (MDA-MB-435 [20]): < 100 nM

SMILES: O=C1C(=O)c2ccccc2C2=C1C1(C(=O)Nc3c(C(F)(F)F)cccc31)N1NN=NC1=N2 (centres undefined)
IC50 (HepG2): 2900 to 36300 nM
IC50 (L02): 2900 to 36300 nM

IC50 (SF-295 [21]): 70 to 370 nM
IC50 (MDA-MB-435 [22]): 70 to 370 nM
IC50 (HL-60 [1]): 70 to 370 nM
IC50 (HCT-8): 70 to 370 nM
SMILES: CC1(C)CC(Nc2ccc(Cl)cc2)C2=C(O1)C(=O)c1ccccc1C2=O (centres undefined)
IC50 (PBMC): 70 to 370 nM

IC50 (Trypanosoma cruzi [4]): 4900 nM
SMILES: CC1(C)Oc2c(c3nc4c5cccnc5c5ncccc5c4nc3c3ccccc23)CC1I (centres undefined)

IC50 (MDA-MB-435 [22]): 10 nM
SMILES: COc1ccc(/N=C2\C(=O)C3=C(OC(C)(C)CC3)c3ccccc32)cc1

SMILES: O=C1C(=O)c2ccccc2C2=C1C1(C(=O)Nc3ccccc31)N1NN=NC1=N2 (centres undefined)
IC50 (HepG2): 2900 to 36300 nM
IC50 (L02): 2900 to 36300 nM

IC50 (MCF7): 600 nM
SMILES: CC(=O)OCC1C2=C(OC1(C)C)c1ccccc1C(=O)C2=O (centres undefined)

SMILES: CCCCCCCCC1CC2=C(O1)c1ccccc1C(=O)C2=O (centres undefined)
IC50 (Trypanosoma cruzi [5]): 20700 nM
selectivity ratio [6]: 106

IC50 (Trypanosoma cruzi [4]): 23000 nM
SMILES: CC1(C)Cc2c(c3ccccc3c3nc4c5cccnc5c5ncccc5c4nc23)O1

IC50 (NCI-H460): 340 to 2170 nM
IC50 (MOLT-4): 340 to 2170 nM
IC50 (K562): 340 to 2170 nM
IC50 (DU-145): 340 to 2170 nM
IC50 (MX1): 340 to 2170 nM
IC50 (MDA-MB-231): 340 to 2170 nM
IC50 (UACC-62): 340 to 2170 nM
IC50 (SF-268): 340 to 2170 nM
IC50 (Jurkat): 340 to 2170 nM
IC50 (Hs-578T [23]): 340 to 2170 nM
IC50 (SF-295 [21]): 340 to 2170 nM
IC50 (MDA-MB-435 [22]): 340 to 2170 nM
IC50 (SW-620 [24]): 340 to 2170 nM
IC50 (PC-3 [25]): 340 to 2170 nM
IC50 (HL-60 [1]): 340 to 2170 nM
IC50 (HCT-8): 340 to 2170 nM
IC50 (HCT-116 [2]): 340 to 2170 nM
SMILES: Cc1cc(C)n2c1C(c1ccc(OCc3cn(C4C5=C(OC4(C)C)c4ccccc4C(=O)C5=O)nn3)cc1)=C1C=CC=[N+]1[B-]2(F)F (centres undefined)
IC50 (PBMC): 3260 nM

SMILES: O=C1C2=C(S[C@@H]3OC[C@@H](O)[C@H](O)[C@H]3O2)C(=O)c2ccccc21
IC50 (HL-60 [26]): 1000 nM
